Test results taken from paper PMC6102642, “Effect of Noncanonical Amino Acids on Protein–Carbohydrate Interactions: Structure, Dynamics, and Carbohydrate Affinity of a Lectin Engineered with Fluorinated Tryptophan Analogs” (ACS Chemical Biology, 2018).

Columns and labels:
Type in all cases: binding
Conditions in all cases: SD
[1] = target: T1, RSL (Ralstonia solanacearum, UniProt A0A0S4TLR1); test: biochemical
T1 construct: gene E7Z57_08365

[2] = target: T2, RSL[4FW]
T2 construct: all seven Trp replaced by 4-fluorotryptophan (85% of protein 7/7 labeled); from pQE80L-RSL in E. coli BWEC47; homotrimer

[3] = target: T3, RSL[5FW]
T3 construct: all seven Trp replaced by 5-fluorotryptophan (86% of protein 7/7 labeled); from pQE80L-RSL in E. coli BWEC47; homotrimer

[4] = target: T4, RSL[7FW]
T4 construct: all seven Trp replaced by 7-fluorotryptophan (84% of protein 7/7 labeled); from pQE80L-RSL in E. coli BWEC47; homotrimer

Structure (SMILES): CO[C@@H]1O[C@@H](C)[C@@H](O)[C@@H](O)[C@@H]1O [αMeFuc, methyl α-L-fucopyranoside]
- Kd [1]: 1.21 µM
- Kd [2]: 1.73 µM
- Kd [3]: 0.889 µM
- Kd [4]: 1.11 µM

Structure (SMILES): CC(=O)N[C@H]1[C@H](O[C@H]2[C@@H](O)[C@@H](CO)OC(O)[C@@H]2O)O[C@H](CO)[C@@H](O[C@@H]2O[C@H](CO)[C@H](O)[C@H](O)[C@H]2O)[C@@H]1O[C@@H]1O[C@@H](C)[C@@H](O)[C@@H](O)[C@@H]1O (stereo partly drawn) [LeX, lewis X tetrasaccharide, Galβ1–4[Fucα1–3]GlcNAcβ1–3Gal]
- Kd [1]: 32.5 µM
- Kd [2]: 67.8 µM
- Kd [3]: 52.4 µM
- Kd [4]: 52.1 µM

Structure (SMILES): CC(=O)N[C@H]1[C@H](O[C@H]2[C@@H](O)[C@@H](CO)OC(O)[C@@H]2O)O[C@H](CO)[C@@H](O[C@@H]2O[C@H](CO)[C@H](O)[C@H](O)[C@H]2O[C@@H]2O[C@@H](C)[C@@H](O)[C@@H](O)[C@@H]2O)[C@@H]1O (stereo partly drawn) [HType2, blood group H type 2 antigen tetrasaccharide, Fucα1–2Galβ1–4GlcNAcβ1–3Gal]
- Kd [1]: 6.36 µM
- Kd [2]: 8.18 µM
- Kd [3]: 6.06 µM
- Kd [4]: 4.35 µM
